Values quoted from earlier work, collected in PMC5281649 (European Journal of Nuclear Medicine and Molecular Imaging, 2016).

What was measured:
[1] = in vivo; cited from earlier work
[2] = design: method as in doi:10.1016/S0924-977X(99)80017-0; conditions: doses providing full blockade of the enzyme; cited from earlier work
[3] = cited from earlier work

NCCNC(=O)c1ccc(Cl)cn1 [lazabemide]
Reason development not continued [1]: hepatotoxic liability
Effect on cognition and functionality in patients with AD [2]: significant improvement in cognition and functionality

C#CCN(C)[C@H](C)Cc1ccccc1 [selegiline]
Effect in 2-year trial in patients with moderate AD [3]: may delay functional deterioration and disease progression
Long-term effect on cognition in patients with moderate-to-severe AD [3]: no long-term benefit on cognition
